Where two headings read alike, the source gives them in different places.
Assays:
[1] = target: FLAG-tagged Vanin-1 (AA 22-493, T26I) (Homo sapiens (Human), UniProt O95497, T26I); assay: Vanin-1 enzymatic assay (pantothenic acid formation, RapidFire Mass Spectrometry); format: biochemical; details: read-out: VNN 1 IC50
Method: The test compounds are dissolved in 100% DMSO at a concentration of 10 mM and in a first step diluted in DMSO to a concentration of 5 mM, followed by serial dilution steps in 100% DMSO. Dilution factor and number of dilution steps may vary according to needs. Typically 8 different concentrations by 1:5 dilutions are prepared, a further intermediate dilutions of the substances is carried out with assay buffer resulting in 1% final DMSO concentration in the assay.
Method 1): 0.15 nM of FLAG-tagged Vanin-1 (AA 22-493, T26I, produced internally) and test compounds are incubated at room temperature for 15 minutes in assay buffer (1 mM DTT, 0.0025% Brij-35, 50 mM HEPES, pH7.5). 3 μM D-Pantethine (Sigma, Cat#P2125-5G) in assay buffer is added and incubated for additional 30 minutes at room temperature. Reaction is stopped by adding equal volume of stop solution as the reaction mixture to reach 5 nM Nevirapine (as an internal standard) and 0.5% TFA. Assay plates are centrifuged for 2 minutes and the formation of pantothenic acid is detected by RapidFire Mass Spectrometry (mobile phase A: 0.1% formic acid in water, mobile phase B: 100% methanol) using graphitic carbon cartridge (Agilent Cat #G9206A).
Method 2): 0.1 nM of FLAG-tagged Vanin-1 (AA 22-493, T26I, produced internally) and test compounds are incubated at room temperature for 20 minutes in assay buffer (1 mM DTT, 0.0025% Brij-35, 50 mM HEPES, pH7.5). D-Pantethine (Sigma, Cat#P2125-5G) in assay buffer is added (final concentration 3 μM) and incubated for additional 30 minutes at room temperature. Total assay volume typically is 40 μl but might be adjusted according to needs. Reaction is stopped by adding equal volume of stop solution as the reaction mixture to reach 100 nM HD-pantothenic acid (as an internal standard) and 1% TFA. Assay plates are centrifuged for 2 minutes and the formation of pantothenic acid is detected by RapidFire Mass Spectrometry (mobile phase A: 0.1% formic acid and 0.01% trifluoroacetic acid in water; mobile phase B: 47.5% acetonitrile, 47.5% methanol, 0.1% formic acid and 0.01% trifluoroacetic acid in water) using a C18, 12 μL cartridge (Agilent Cat #G9205A).
The values given in Table I result from measurements of one or more samples. In case of multiple measurements the geometric mean values determined by method 1 and/or method 2 are given.

[2] = test system: human whole blood; assay: Human Whole Blood assay (HWB; pantothenic acid formation from D-Pantethine); format: cell-based; details: 10 μM D-Pantethine, 30 minutes at room temperature, geometric mean if multiple measurements
Method: 250 μl human whole blood and 7 μl pre-diluted compound in RPMI 1640 media are incubated at room temperature for 15 minutes on an orbital shaker. 10 μl of D-Pantethine (Sigma, Cat#P2125-5G) is added, resulting in 10 μM final concentration, for additional 30 minutes incubation at room temperature. The reaction is stopped by placed on ice for 5 minutes. Assay plates are centrifuged at 1800 rpm at 4° C. for 10 minutes. 80 μl of plasma is mixed with 80 μl of ice-cold acetonitrile and is left on ice for 5 minutes. The reaction mixture is centrifuged at 4000 rpm for 10 min at 4° C. 50 μl of the supernatant is mixed with 150 μl of ice-cold H2O. The above solution is mixed with equal volume of stop solution to reach 5 nM Nevirapine (as an internal standard) and 0.4% TFA. The mixture is centrifuged at 4000 rpm for 10 minutes. The formation of pantothenic acid is detected by RapidFire Mass Spectrometry (mobile phase A: 0.1% Formic acid in water, mobile phase B: 100% Methanol) using graphitic carbon cartridge (Agilent Cat #G9206A). Please see Table I for results. The values given in Table I result from measurements of one or more samples. In case of multiple measurements the geometric mean values are given.

[3] = VNN1-assay methods 1 + 2: geometric mean of values determined by method 1 and method 2
[4] = VNN1-assay method 1: 0.15 nM Vanin-1, 15 min preincubation, 3 μM D-Pantethine, geometric mean if multiple measurements
[5] = VNN1-assay method 2: 0.1 nM Vanin-1, 20 min preincubation, 3 μM D-Pantethine, geometric mean if multiple measurements

FLAG-tagged Vanin-1 (AA 22-493, T26I), sequence (O95497 22-493 T26I): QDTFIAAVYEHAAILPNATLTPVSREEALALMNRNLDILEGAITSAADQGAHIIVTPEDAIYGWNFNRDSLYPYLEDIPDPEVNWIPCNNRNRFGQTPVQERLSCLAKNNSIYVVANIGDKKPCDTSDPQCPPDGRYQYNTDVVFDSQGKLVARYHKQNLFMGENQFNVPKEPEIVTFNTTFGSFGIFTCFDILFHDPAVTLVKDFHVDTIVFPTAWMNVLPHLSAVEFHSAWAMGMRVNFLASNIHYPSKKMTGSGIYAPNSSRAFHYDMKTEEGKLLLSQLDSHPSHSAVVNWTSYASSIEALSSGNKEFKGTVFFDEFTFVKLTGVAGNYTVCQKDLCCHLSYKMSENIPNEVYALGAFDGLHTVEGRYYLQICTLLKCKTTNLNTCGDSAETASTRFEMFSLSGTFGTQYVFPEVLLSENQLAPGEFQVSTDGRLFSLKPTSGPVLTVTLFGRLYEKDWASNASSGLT

CC(=O)N(C)[C@H]1CCN(C(=O)c2cnc3c(c2)OC[C@@H](c2ccccc2)N3)C1 [Example 31]
IC50 [1, 3]: 1750 nM

O=C(c1cnc2c(c1)OCCN2)N1CCC(c2ccncc2)C1 (centres unmarked) [Example 38]
IC50 ([2]; Homo sapiens, 0.5 h): 210 nM

CC[C@H]1COc2cc(C(=O)N3CCC(c4ccncc4)C3)cnc2N1 (some centres unmarked) [Example 5]
IC50 ([2]; Homo sapiens, 0.5 h): 76 nM
IC50 [1, 3]: 3.1 nM

CC(C)[C@H]1COc2cc(C(=O)N3CCC(c4ccncc4)C3)cnc2N1 (some centres unmarked) [Example 10]
IC50 ([2]; Homo sapiens, 0.5 h): 146 nM
IC50 [1, 4]: 2.4 nM

O=C(c1cnc2c(c1)OCC1(CC1)N2)N1CCC(c2ccncc2)C1 (single isomer, unassigned) [Example 22]
IC50 [2]: 37 nM
IC50 [1, 4]: 0.4 nM

CC[C@H]1COc2cc(C(=O)N3CC[C@H](N(C)C(C)=O)C3)cnc2N1 [Example 4]
IC50 ([2]; Homo sapiens, 0.5 h): 22 nM
IC50 [1, 4]: 1.3 nM

O=C(c1cnc2c(c1)OC[C@@H](c1ccccc1)N2)N1CCC(c2ccncc2)C1 (some centres unmarked) [Example 7]
IC50 [1, 4]: 6200 nM

O=C(c1cnc2c(c1)O[C@H](CO)CN2)N1CCC(c2ccncc2)C1 (some centres unmarked) [Example 43]
IC50 ([2]; Homo sapiens, 0.5 h): 66 nM

C[C@H]1CNc2ncc(C(=O)N3CCC(c4ccncc4)C3)cc2O1 (some centres unmarked) [Example 34]
IC50 ([2]; Homo sapiens, 0.5 h): 44 nM
IC50 [1, 3]: 3.5 nM

CN1C(=O)CC[C@@]12CCN(C(=O)c1cnc3c(c1)OCCC1(CC1)N3)C2 [Example 24]
IC50 ([2]; Homo sapiens, 0.5 h): 6.5 nM
IC50 [1, 5]: 0.6 nM

CC(=O)N(C)[C@H]1CCN(C(=O)c2cnc3c(c2)OC[C@@H](C)N3)C1 [Example 29]
IC50 ([2]; Homo sapiens, 0.5 h): 28 nM
IC50 [1, 3]: 3.3 nM

CC(=O)N(C)[C@H]1CCN(C(=O)c2cnc3c(c2)OCC(C)(C)CN3)C1 [Example 42]
IC50 ([2]; Homo sapiens, 0.5 h): 16 nM
IC50 [1, 3]: 1.1 nM

CN(C(=O)C1CC1)[C@H]1CCN(C(=O)c2cnc3c(c2)OCC2(CC2)N3)C1 [Example 17]
IC50 ([2]; Homo sapiens, 0.5 h): 8.8 nM
IC50 [1, 5]: 0.7 nM

O=C(c1cnc2c(c1)OC[C@H](c1ccccc1)N2)N1CCC(c2ccncc2)C1 (single isomer, unassigned) [Example 12]
IC50 [2]: 330 nM
IC50 [1, 4]: 1.8 nM

CC(=O)N(C)[C@H]1CCN(C(=O)c2cnc3c(c2)O[C@H](C)CN3)C1 [Example 32]
IC50 ([2]; Homo sapiens, 0.5 h): 14 nM

CC[C@@H]1COc2cc(C(=O)N3CCC(c4ccncc4)C3)cnc2N1 (some centres unmarked) [Example 6]
IC50 ([2]; Homo sapiens, 0.5 h): 99 nM
IC50 [1, 4]: 8.9 nM

CC(=O)N(C)[C@H]1CCN(C(=O)c2cnc3c(c2)OCCN3)C1 [Example 39]
IC50 ([2]; Homo sapiens, 0.5 h): 120 nM

O=C(c1cnc2c(c1)OC[C@H](c1ccccc1)N2)N1CCC(c2ccncc2)C1 (single isomer, unassigned) [Example 11]
IC50 [2]: 3700 nM
IC50 [1, 4]: 19 nM

CN1C(=O)CC[C@]12CCN(C(=O)c1cnc3c(c1)OCCC1(CC1)N3)C2 [Example 23]
IC50 ([2]; Homo sapiens, 0.5 h): 50 nM
IC50 [1, 5]: 8.1 nM

CC(=O)N(C)[C@H]1CCN(C(=O)c2cnc3c(c2)O[C@H](CO)CN3)C1 [Example 41]
IC50 ([2]; Homo sapiens, 0.5 h): 18 nM

CN([C@H]1CCN(C(=O)c2cnc3c(c2)OCC2(CC2)N3)C1)S(=O)(=O)C1CC1 [Example 19]
IC50 ([2]; Homo sapiens, 0.5 h): 39 nM
IC50 [1, 5]: 2.3 nM

O=C(c1cnc2c(c1)OCC1(CC1)N2)N1CC[C@H](N2CCOC2=O)C1 [Example 16]
IC50 ([2]; Homo sapiens, 0.5 h): 8.9 nM
IC50 [1, 5]: 0.6 nM

CC(=O)N(C)[C@H]1CCN(C(=O)c2cnc3c(c2)OC[C@H](C(C)C)N3)C1 [Example 9]
IC50 ([2]; Homo sapiens, 0.5 h): 23 nM
IC50 [1, 4]: 1.5 nM

CC(=O)N(C)[C@H]1CCN(C(=O)c2cnc3c(c2)OCCC2(CC2)N3)C1 [Example 37]
IC50 ([2]; Homo sapiens, 0.5 h): 6.3 nM
IC50 [1, 3]: 0.2 nM

CC(=O)N(C)[C@H]1CCN(C(=O)c2cnc3c(c2)OCC2(CC2)N3)C1 [Example 21]
IC50 ([2]; Homo sapiens, 0.5 h): 10 nM
IC50 [1, 3]: 0.4 nM

CC(=O)N(C)[C@H]1CCN(C(=O)c2cnc3c(c2)OC[C@H](c2ccccc2)N3)C1 [Example 30]
IC50 ([2]; Homo sapiens, 0.5 h): 43 nM
IC50 [1, 3]: 2.4 nM

O=C(c1cnc2c(c1)OCCC1(CC1)N2)N1CC[C@H](N2CCCC2=O)C1 [Example 25]
IC50 ([2]; Homo sapiens, 0.5 h): 3.1 nM
IC50 [1, 5]: 0.1 nM

CC(=O)N(C)[C@H]1CCN(C(=O)c2cnc3c(c2)OCC(C)(C)N3)C1 [Example 14]
IC50 ([2]; Homo sapiens, 0.5 h): 12 nM

CC(=O)N(C)[C@H]1CCN(C(=O)c2cnc3c(c2)OCCCN3)C1 [Example 44]
IC50 ([2]; Homo sapiens, 0.5 h): 23 nM

CC(C)[C@@H]1COc2cc(C(=O)N3CCC(c4ccncc4)C3)cnc2N1 (some centres unmarked) [Example 8]
IC50 [1, 4]: 17.2 nM

CC[C@@H]1COc2cc(C(=O)N3CC[C@H](N(C)C(C)=O)C3)cnc2N1 [Example 1]
IC50 ([2]; Homo sapiens, 0.5 h): 20 nM
IC50 [1, 3]: 3.3 nM

C[C@@H]1CNc2ncc(C(=O)N3CCC(c4ccncc4)C3)cc2O1 (some centres unmarked) [Example 33]
IC50 ([2]; Homo sapiens, 0.5 h): 34 nM
IC50 [1, 4]: 2.5 nM

CC(=O)N(C)[C@H]1CCN(C(=O)c2cnc3c(c2)O[C@@H](C)CN3)C1 [Example 35]
IC50 ([2]; Homo sapiens, 0.5 h): 190 nM
IC50 [1, 3]: 26.1 nM

C[C@@H]1COc2cc(C(=O)N3CCC(c4cccnc4)C3)cnc2N1 (some centres unmarked) [Example 28]
IC50 ([2]; Homo sapiens, 0.5 h): 168 nM
IC50 [1, 4]: 3.8 nM

O=C(c1cnc2c(c1)OCC1(CC1)N2)N1CC[C@H](N2CCCC2=O)C1 [Example 15]
IC50 ([2]; Homo sapiens, 0.5 h): 7.8 nM
IC50 [1, 5]: 0.7 nM

O=C(c1cnc2c(c1)OCC1(CC1)N2)N1CCC(c2ccncc2)C1 (single isomer, unassigned) [Example 20]
IC50 [2]: 130 nM
IC50 [1, 4]: 1.9 nM

O=C(c1cnc2c(c1)OCCC1(CC1)N2)N1CC[C@H](N2CCOC2=O)C1 [Example 26]
IC50 ([2]; Homo sapiens, 0.5 h): 5.9 nM
IC50 [1, 5]: 0.2 nM

CC(=O)N(C)[C@H]1CCN(C(=O)c2cnc3c(c2)OC[C@H](C)N3)C1 [Example 13]
IC50 ([2]; Homo sapiens, 0.5 h): 23 nM
IC50 [1, 3]: 1.8 nM

CN1C(=O)CCC12CCN(C(=O)c1cnc3c(c1)OCCC1(CC1)N3)C2 (centres unmarked) [Example 27]
IC50 ([2]; Homo sapiens, 0.5 h): 11 nM
IC50 [1, 5]: 1.09 nM

C[C@H]1COc2cc(C(=O)N3CCC(c4ccncc4)C3)cnc2N1 (some centres unmarked) [Example 40]
IC50 ([2]; Homo sapiens, 0.5 h): 87 nM
IC50 [1, 3]: 1.7 nM

CN(C(=O)C1COC1)[C@H]1CCN(C(=O)c2cnc3c(c2)OCC2(CC2)N3)C1 [Example 18]
IC50 ([2]; Homo sapiens, 0.5 h): 12 nM
IC50 [1, 5]: 0.9 nM

CC(=O)N(C)[C@H]1CCN(C(=O)c2cnc3c(c2)OC[C@@H](C(C)C)N3)C1 [Example 2]
IC50 ([2]; Homo sapiens, 0.5 h): 26 nM
IC50 [1, 4]: 3.6 nM
